Assay results taken from ChEMBL document CHEMBL5500408, “A New Gramicidin S Analogue with Potent Antibacterial Activity and Negligible Hemolytic Toxicity” (J Med Chem, 2024).
Values after ≈ are worked out from the molar mass of the structure shown. Residues, ends and D or L forms follow the SMILES beside them.

Assays:
Staphylococcus aureus [1] = experiment: Antibacterial activity against methicillin-resistant Staphylococcus aureus ATCC USA300 incubated for 16 to 20 hrs by CLSI based broth microdilution method; type: functional; details: time 16-20 hrs
[2] = Hemolytic activity in sheep erythrocytes incubated for 30 mins by absorbance based assay; type: toxicity, cell-based, Ovis aries, Erythrocyte
Staphylococcus aureus [3] = experiment: Antibacterial activity against methicillin-sensitive Staphylococcus aureus ATCC 49775 incubated for 16 to 20 hrs by CLSI based broth microdilution method; type: functional; details: time 16-20 hrs
Staphylococcus aureus [4] = experiment: Antibacterial activity against methicillin-resistant Staphylococcus aureus […] incubated for 16 to 20 hrs by CLSI based broth microdilution method; type: functional; details: time 16-20 hrs
Staphylococcus aureus [5] = experiment: Antibacterial activity against methicillin-sensitive Staphylococcus aureus ATCC 29213 incubated for 16 to 20 hrs by CLSI based broth microdilution method; type: functional; details: time 16-20 hrs
[6] = Retention time of the compound by RP-HPLC analysis; type: physicochemical
HEK293 = experiment: Nephrotoxicity against HEK293 cells at MIC incubated for 24 hrs by MTT assay; type: toxicity, cell-based; details: human, hek293, 24 h
[7] = Nephrotoxicity against HEK293 cells assessed as cell viability at 12.5 uM incubated for 24 hrs by MTT assay relative to control; type: toxicity, cell-based; details: human, read-out: Activity

Row | Structure (SMILES) | MIC (Staphylococcus aureus [1]) [µg/mL] | HC50 at 0.5 h [2] [µM] | MIC (Staphylococcus aureus [3]) [µg/mL] | MIC (Staphylococcus aureus [4]) [µg/mL] | MIC (Staphylococcus aureus [5]) [µg/mL] | Retention_time [6] [min] | Activity (HEK293) | viability at 24 h, 12.5 µM [7] [%]
1 | CC(C)C[C@@H]1NC(=O)[C@H](CCCNC(=N)N)NC(=O)[C@H](C(C)C)NC(=O)[C@@H]2CCCN2C(=O)[C@@H](Cc2ccccc2)NC(=O)[C@H](CC(C)C)NC(=O)[C@H](CCCNC(=N)N)NC(=O)[C@H](C(C)C)NC(=O)[C@@H]2CCCN2C(=O)[C@@H](Cc2ccccc2)NC1=O | 8 (≈ 6.53 µM) | 25.4 | 8 (≈ 6.53 µM) | 8 (≈ 6.53 µM) | 8 (≈ 6.53 µM) | 18.62 |  | 
2 | CC(C)C[C@@H]1NC(=O)[C@H](CCCN)NC(=O)[C@H](C(C)C)NC(=O)[C@@H]2CCCN2C(=O)[C@@H](Cc2ccccc2)NC(=O)[C@H](CC(C)C)NC(=O)[C@H](CCCNC(=N)N)NC(=O)[C@H](C(C)C)NC(=O)[C@@H]2CCCN2C(=O)[C@@H](Cc2ccccc2)NC1=O | 8 (≈ 6.76 µM) | 46.2 | 4 (≈ 3.38 µM) | 16 (≈ 13.5 µM) | 8 (≈ 6.76 µM) | 18.74 |  | 
3 | CC(C)C[C@@H]1NC(=O)[C@H](CCCN)NC(=O)[C@H](C(C)C)NC(=O)[C@@H]2CCCN2C(=O)[C@@H](CCCNC(=N)N)NC(=O)[C@H](CC(C)C)NC(=O)[C@H](CCCN)NC(=O)[C@H](C(C)C)NC(=O)[C@@H]2CCCN2C(=O)[C@@H](CCCNC(=N)N)NC1=O | 32 (≈ 27.6 µM) | > 100 | 32 (≈ 27.6 µM) | 16 (≈ 13.8 µM) | 16 (≈ 13.8 µM) | 14.56 |  | 
4 | CC(C)C[C@@H]1NC(=O)[C@H](CCCNC(=N)N)NC(=O)[C@H](C(C)C)NC(=O)[C@@H]2CCCN2C(=O)[C@@H](Cc2c[nH]cn2)NC(=O)[C@H](CC(C)C)NC(=O)[C@H](CCCN)NC(=O)[C@H](C(C)C)NC(=O)[C@@H]2CCCN2C(=O)[C@@H](Cc2ccccc2)NC1=O | 16 (≈ 13.6 µM) | > 100 | 16 (≈ 13.6 µM) | 16 (≈ 13.6 µM) | 16 (≈ 13.6 µM) | 16.09 |  | 
5 | CC(C)C[C@@H]1NC(=O)[C@H](CCCN)NC(=O)[C@H](C(C)C)NC(=O)[C@H](Cc2c[nH]cn2)NC(=O)[C@@H](Cc2ccccc2)NC(=O)[C@H](CC(C)C)NC(=O)[C@H](CCCN)NC(=O)[C@H](C(C)C)NC(=O)[C@H](Cc2c[nH]cn2)NC(=O)[C@@H](Cc2ccccc2)NC1=O | 128 (≈ 105 µM) | > 100 | 64 (≈ 52.4 µM) | 64 (≈ 52.4 µM) | 64 (≈ 52.4 µM) | 14.74 |  | 
6 | CC(C)C[C@@H]1NC(=O)[C@H](CCCN)NC(=O)[C@H](C(C)C)NC(=O)[C@@H]2CCCN2C(=O)[C@@H](Cc2c[nH]cn2)NC(=O)[C@H](CC(C)C)NC(=O)[C@H](CCCN)NC(=O)[C@H](C(C)C)NC(=O)[C@@H]2CCCN2C(=O)[C@@H](Cc2c[nH]cn2)NC1=O | > 256 | > 100 | 256 (≈ 228 µM) | 256 (≈ 228 µM) | 256 (≈ 228 µM) | 14.01 |  | 
7 | CC(C)C[C@@H]1NC(=O)[C@H](CCCNC(=N)N)NC(=O)[C@H](C(C)C)NC(=O)[C@@H]2CCCN2C(=O)[C@@H](Cc2ccccc2)NC(=O)[C@H](CC(C)C)NC(=O)[C@H](CCCN)NC(=O)[C@H](C(C)C)NC(=O)[C@@H]2CCCN2C(=O)[C@@H](CCCNC(=N)N)NC1=O | 8 (≈ 6.71 µM) | > 100 | 8 (≈ 6.71 µM) | 8 (≈ 6.71 µM) | 8 (≈ 6.71 µM) | 16.47 |  | 
8 | CC(C)C[C@@H]1NC(=O)[C@H](CCCN)NC(=O)[C@H](C(C)C)NC(=O)[C@@H]2CCCN2C(=O)[C@@H](Cc2ccccc2)NC(=O)[C@H](CC(C)C)NC(=O)[C@H](CCCNC(=N)N)NC(=O)[C@H](C(C)C)NC(=O)[C@@H]2CCCN2C(=O)[C@@H](CCCNC(=N)N)NC1=O (HELM PEPTIDE1{L.[dF].P.V.[Orn].L.[dR].P.V.R}$PEPTIDE1,PEPTIDE1,1:R1-10:R2$$$V2.0) | 8 (≈ 6.71 µM) | 87.2 | 8 (≈ 6.71 µM) | 8 (≈ 6.71 µM) | 8 (≈ 6.71 µM) | 16.47 |  | 
9 | CC(C)C[C@@H]1NC(=O)[C@H](CCCN)NC(=O)[C@H](C(C)C)NC(=O)[C@@H]2CCCN2C(=O)[C@@H](Cc2ccccc2)NC(=O)[C@H](CC(C)C)NC(=O)[C@H](CCCN)NC(=O)[C@H](C(C)C)NC(=O)[C@@H]2CCCN2C(=O)[C@@H](CCCNC(=N)N)NC1=O (HELM PEPTIDE1{L.[dF].P.V.[Orn].L.[dR].P.V.[Orn]}$PEPTIDE1,PEPTIDE1,1:R1-10:R2$$$V2.0) | 8 (≈ 6.95 µM) | > 100 | 8 (≈ 6.95 µM) | 8 (≈ 6.95 µM) | 8 (≈ 6.95 µM) | 16.22 | Non-Toxic | ~90
10 | CC(C)C[C@@H]1NC(=O)[C@H](CCCN)NC(=O)[C@H](C(C)C)NC(=O)[C@@H]2CCCN2C(=O)[C@@H](Cc2ccccc2)NC(=O)[C@H](CC(C)C)NC(=O)[C@H](CCCN)NC(=O)[C@H](C(C)C)NC(=O)[C@@H]2CCCN2C(=O)[C@@H](Cc2ccccc2)NC1=O [GRAMICIDIN S] (HELM PEPTIDE1{L.[dF].P.V.[Orn].L.[dF].P.V.[Orn]}$PEPTIDE1,PEPTIDE1,1:R1-10:R2$$$V2.0) | 4 (≈ 3.5 µM) | 60.1 | 4 (≈ 3.5 µM) | 4 (≈ 3.5 µM) | 4 (≈ 3.5 µM) | 18.57 |  | 25
